In US5624923A, “Tricyclic diazepine vasopressin antagonists and oxytocin antagonists” (priority 1995, dated 1997):

Assays:
Vasopressin V1 = Vasopressin V1 Antagonist Activity in Conscious Rats (vasopressin vasopressor response); format: in vivo, rat
How it was run: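 Conscious rats are restrained supine, and under local 2% procaine a PE 10/20 cannula is passed through the ventral caudal tail artery into the lower abdominal aorta. The caudal vein is cannulated for intravenous dosing. Blood pressure is recorded with a Statham P23Db transducer, and vasopressin injections are repeated after compound dosing. Percent antagonism is calculated against the pre-drug vasopressor response taken as 100%.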

oxytocin receptors = target: T1, oxytocin receptors (Rattus norvegicus, UniProt P70536); experiment: Oxytocin Receptor Binding; conditions: for IC50: 1.0 nM [3H]oxytocin; for inhibition at 10 µM / inhibition at 1.25 µM: [3H]oxytocin
T1 construct: The uteri are dissected out, cleaned of fat and connective tissues; from tissue; host or cells: uterus of DES-treated female Sprague-Dawley rats
T1 sequence (P70536 1-388): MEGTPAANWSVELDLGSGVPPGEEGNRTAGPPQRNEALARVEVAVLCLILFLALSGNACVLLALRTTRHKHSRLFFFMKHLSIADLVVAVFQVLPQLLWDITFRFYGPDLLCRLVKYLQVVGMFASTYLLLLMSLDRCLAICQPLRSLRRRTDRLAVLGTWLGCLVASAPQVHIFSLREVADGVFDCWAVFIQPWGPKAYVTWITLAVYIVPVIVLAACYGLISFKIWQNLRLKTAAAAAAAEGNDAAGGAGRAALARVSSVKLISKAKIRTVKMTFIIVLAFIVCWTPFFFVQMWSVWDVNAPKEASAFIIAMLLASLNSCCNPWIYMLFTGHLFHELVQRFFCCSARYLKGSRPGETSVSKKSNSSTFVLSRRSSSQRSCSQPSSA
How it was run: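 IC50 is the concentration displacing 50% of 1.0 nM [3H]OT, incubated 60 min at 22 °C in pH 7.4 Tris/MgCl2 buffer plus protease inhibitors, then filtered. Receptor source: uterine membranes from rats given 0.3 mg/kg DES i.m. 18 h earlier. 1.0 uM cold OT defined non-specific binding.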

Rat Hepatic V1 Receptors = target: T2, Rat Hepatic V1 Receptors (Rattus norvegicus, UniProt P30560); experiment: Binding Assay to Rat Hepatic V1 Receptors; conditions: rat liver membranes; read-out: V1 IC50
T2 construct: Rat liver plasma membranes expressing the vasopressin V1 receptor subtypes; from tissue; host or cells: rat liver plasma membranes
T2 sequence (P30560 whole entry): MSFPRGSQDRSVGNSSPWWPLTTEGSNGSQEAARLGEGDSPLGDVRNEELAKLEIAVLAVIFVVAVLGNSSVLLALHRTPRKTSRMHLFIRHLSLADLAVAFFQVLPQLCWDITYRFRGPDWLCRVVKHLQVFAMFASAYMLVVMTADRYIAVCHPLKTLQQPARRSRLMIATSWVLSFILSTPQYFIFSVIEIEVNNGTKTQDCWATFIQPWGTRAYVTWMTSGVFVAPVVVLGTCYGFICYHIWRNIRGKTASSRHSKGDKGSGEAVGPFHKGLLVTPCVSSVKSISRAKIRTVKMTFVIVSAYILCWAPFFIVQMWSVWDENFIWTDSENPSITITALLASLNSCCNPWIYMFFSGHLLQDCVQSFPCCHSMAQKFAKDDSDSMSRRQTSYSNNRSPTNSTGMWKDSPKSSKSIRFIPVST

| Compound | Max. % Inhibition (Vasopressin V1; 10 mg/kg i.v.) [%] | Time (of max. % inhibition) (Vasopressin V1; 10 mg/kg i.v.) [min] | Max. % Inhibition (Vasopressin V1; 30 mg/kg p.o.) [%] | Time (of max. % inhibition) (Vasopressin V1; 30 mg/kg p.o.) [min] | IC50 (oxytocin receptors) [nM] | inhibition at 10 µM (oxytocin receptors) [%] | IC50 (Rat Hepatic V1 Receptors) [nM] | inhibition at 1.25 µM (oxytocin receptors) [%] | Max. % Inhibition (Vasopressin V1; 30 mg/kg i.v.) [%] | Time (of max. % inhibition) (Vasopressin V1; 30 mg/kg i.v.) [min] |
| --- | --- | --- | --- | --- | --- | --- | --- | --- | --- | --- |
| O=C(Nc1ccc(C(=O)N2Cc3cccn3Cc3ccccc32)cc1)C(O)c1ccccc1 (racemic) [Example 588, (±) α-Hydroxy-N-[4-(5H-pyrrolo[2,1c][1,4]benzodiazepin-10(11H)-ylcarbonyl)phenyl]benzeneacetamide] | 65 | 90 | 80 | 120 | 2000 | 90 | 40 |  |  |  |
| O=C(Nc1ccc(C(=O)N2Cc3cccn3Cc3sccc32)cc1)c1ccc(Cl)cc1Cl [Example 274, N-(4-(5H-pyrrolo[1,2-a]thieno-[3,2-e][1,4]diazepin-4(10H)-ylcarbonyl)phenyl]-2,4-dichloro-benzamide] | 59 | 300 |  |  | 1000 | 95 |  |  |  |  |
| COc1cc(C(=O)N2Cc3cccn3Cc3ccccc32)ccc1NC(=O)c1ccccc1C [Example 477, N-[4-(5H-pyrrolo[2,1-c][1,4]benzodiazepin-10(11H)-ylcarbonyl)-2-methoxy-phenyl]-2-methylbenzamide] | 88 | 180 | 82 | 30 | 29 |  |  | 97 |  |  |
| COc1cc(C(=O)N2Cc3cccn3Cc3ccccc32)ccc1NC(=O)c1ccc(Cl)cc1Cl [Example 478, N-[4-(5H-pyrrolo[2,1-c][1,4]benzodiazepin-10(11H)-ylcarbonyl)-2-methoxy-phenyl]-2,4-dichlorobenzamide] | 76 | 120 |  |  | 40 |  |  | 97 |  |  |
| COc1cc(C(=O)N2Cc3cccn3Cc3ccccc32)ccc1NC(=O)c1cccc(F)c1C [Example 479, N-[4-(5H-pyrrolo[2,1-c][1,4]benzodiazepin-10(11H)-ylcarbonyl)-2-methoxy-phenyl]-3-fluoro-2-methylbenzamide] | 83 | 60 | 69 | 90 | 150 | 76 |  |  |  |  |
| O=C(Nc1ccc(C(=O)N2Cc3cccn3Cc3ccccc32)cc1)c1cc([N+](=O)[O-])ccc1Cl [Example 480, N-[4-(5H-pyrrolo[2,1-c][1,4]benzodiazepin-10(11H)-ylcarbonyl)phenyl]-2-chloro-5-nitrobenzamide] | 29 | 300 |  |  | 150 | 98 |  |  |  |  |
| Cc1cccc(C(=O)Nc2ccc(C(=O)N3Cc4cccn4Cc4ccccc43)c(Cl)c2)c1C [Example 525, N-[4-(5H-pyrrolo[2,1-c][1,4]benzodiazepin-10(11H)-ylcarbonyl]-3-chlorophenyl]-2,3-dimethylbenzamide] |  |  |  |  | 280 | 98 |  |  | 70 | 60 |
| O=C(Nc1ccc(C(=O)N2Cc3cccn3Cc3ccccc32)c(Cl)c1)c1ccc(F)cc1Cl [Example 527, N-[4-(5H-pyrrolo[2,1-c][1,4]benzodiazepin-10(11H)-ylcarbonyl]-3-chlorophenyl]-4-fluoro-2-chlorobenzamide] |  |  |  |  | 450 | 92 |  |  | 85 | 180 |
| O=C(Nc1ccc(C(=O)N2Cc3cccn3Cc3ccccc32)c(Cl)c1)c1ccccc1C(F)(F)F [Example 528, N-[4-(5H-pyrrolo[2,1-c][1,4]benzodiazepin-10(11H)-ylcarbonyl]-3-chlorophenyl]-2-(trifluoromethyl)benzamide] |  |  |  |  | 1170 | 90 |  |  | 66 | 300 |
| Cc1ccccc1C(=O)Nc1ccc(C(=O)N2Cc3cccn3Cc3ccccc32)cc1Cl [Example 530, N-[4-(5H-Pyrrolo[2,1-c][1,4]benzodiazepin-10(11H)-ylcarbonyl)-2-chlorophenyl]-2-methylbenzamide] |  |  |  |  | 310 | 99 |  |  | 89 | 120 |
